In patent US9193673B2, “Derivatives of mesalazine, process of their preparation and their use in the treatment of intestinal inflammatory diseases” (SOFAR SPA, priority 2010, dated 2015):

What was measured:
[1] = Stability in murine intestinal homogenate; type: in vitro ADME, rat; details: rat intestinal homogenate, reference standard (concentration not given)
Method: Such study is conducted with the aim of evaluating the stability of the compound (IV) in intestinal homogenate.
(§1) The stability of the compound (IV) is compared to that of known reference standards.

[2] = Hydrolysis in rat intestine preserved in different conditions; type: in vitro ADME
Method: Such study is conducted with the aim of surveying the stability of the compound (IV) in rat intestine homogenate preserved in different conditions: frozen at […] and at −80° C.
as §1

[3] = Stability in simulated gastric and simulated intestinal fluids; type: physicochemical
Method: Such study is conducted with the aim of evaluating the stability of the compound (IV) at […] in absence of enzymes of the intestinal bacterial flora.
as §1

Caco2 cellular line = experiment: Permeability on the Caco2 cellular line; type: in vitro ADME; details: A→B, Caco2
Method: (§2) Such study is conducted with the aim of evaluating the capacity of the molecule to permeate the intestinal epithelium and be absorbed thereby evaluating the Papp (apparent permeability coefficient). The Papp of the compound (IV) is compared to that of the known reference standards.

[4] = Permeability on the Caco2 cellular line; type: in vitro ADME; details: human, Caco-2; Apical (pH 6.5) → Basolateral (pH 7.4), Caco2; read-out: Papp A→B (nm/sec) Mean ± SD
Method: as §2

| SMILES | Residue percentage ([1]; 30 min) [%] | Residue percentage ([1]; 1 hr) [%] | Residue percentage ([1]; 2 hrs) [%] | Residue percentage ([1]; 4 hrs) [%] | Stability in rat intestine (residue %) ([2]; fresh homogenate, 15 min) [%] | Stability in rat intestine (residue %) ([2]; fresh homogenate, 30 min) [%] | Stability in rat intestine (residue %) ([2]; fresh homogenate, 60 min) [%] | Stability in rat intestine (residue %) ([2]; homogenate 4° C., 15 min) [%] | Stability in rat intestine (residue %) ([2]; homogenate 4° C., 30 min) [%] | Stability in rat intestine (residue %) ([2]; homogenate 4° C., 60 min) [%] | Stability in rat intestine (residue %) ([2]; intestine −80° C., 15 min) [%] | Stability in rat intestine (residue %) ([2]; intestine −80° C., 30 min) [%] | Stability in rat intestine (residue %) ([2]; intestine −80° C., 60 min) [%] | % Residue ([3]; SGF, 30 min incubation) [%] | % Residue ([3]; SGF, 60 min incubation) [%] | % Residue ([3]; SIF, 30 min incubation) [%] | % Residue ([3]; SIF, 60 min incubation) [%] | A→B Mean mass balance % (Caco2 cellular line) [%] | Papp A→B [4] [×10⁻⁶ cm/s] |
| --- | --- | --- | --- | --- | --- | --- | --- | --- | --- | --- | --- | --- | --- | --- | --- | --- | --- | --- | --- |
| O=C(O)CCCc1ccc(N(CCCl)CCCl)cc1 [Chlorambucil, reference compound] | 49.5 ± 7.8 | 16.9 ± 2.2 | 1.5 ± 0.1 | 0.20 ± 0.08 | 75.2 ± 3.8 | 58.7 ± 2.3 | 28.0 ± 1.5 | 76.5 ± 5.0 | 53.0 ± 13.9 | 25.9 ± 5.3 | 73.0 ± 1.2 | 25.0 ± 6.1 | 6.9 ± 1.4 | 92.8 ± 2.1 | 89.8 ± 1.5 | 42.1 ± 0.5 | 13.9 ± 0.3 |  |  |
| CC[C@H]1OC(=O)[C@H](C)[C@@H](O[C@H]2C[C@@](C)(OC)[C@@H](O)[C@H](C)O2)[C@H](C)[C@@H](O[C@@H]2O[C@H](C)C[C@H](N(C)C)[C@H]2O)[C@](C)(O)C[C@@H](C)C(=O)[C@H](C)[C@@H](O)[C@]1(C)O [Erythromycin, reference compound] | 83.5 ± 3.6 | 84.7 ± 3.6 | 95.0 ± 11.0 | 97.5 ± 2.8 |  |  |  |  |  |  |  |  |  | 0.2 ± 0.1 | 0.1 ± 0.1 | 98.1 ± 1.4 | 100.9 ± 0.4 |  |  |
| CC[C@]1(O)C[C@@H]2CN(CCc3c([nH]c4ccccc34)[C@@](C(=O)OC)(c3cc4c(cc3OC)N(C)[C@H]3[C@@](O)(C(=O)OC)[C@H](OC(C)=O)[C@]5(CC)C=CCN6CC[C@]43[C@@H]65)C2)C1 [Vinblastine, reference compound] |  |  |  |  |  |  |  |  |  |  |  |  |  |  |  |  |  | 89 | 0.41 ± 0.21 |
